Source: patent publication US10844051B2, “Substituted oxazoles for the treatment of cancer” (THE ROYAL INSTITUTION FOR THE ADCANCEMENT OF …, priority 2015, dated 2020)
Entries after “also recorded” stand apart in the source; their conditions may differ. One block for each compound: values may come before it.

Key:
[1] = tested on: LNCaP-pcDNA and LNCaP-GATA2 cells; assay: MTT assay in LNCaP-pcDNA and LNCaP-GATA2 cells; type: cell-based; conditions: 72 hours
Protocol: Cells were exposed to DMSO vehicle or compounds for 72 hours. Vial cells were evaluated by MTT assays. Experiments were done in triplicate.

[2] = biological target: T1, ETV1 (Homo sapiens, UniProt P50549); assay: ETV1-dependent reporter assay in HEK293 cells; type: cell-based; conditions: 48 hours
T1 construct: expressed in transfected cells; host or cells: HEK293
T1 sequence (P50549 1-477): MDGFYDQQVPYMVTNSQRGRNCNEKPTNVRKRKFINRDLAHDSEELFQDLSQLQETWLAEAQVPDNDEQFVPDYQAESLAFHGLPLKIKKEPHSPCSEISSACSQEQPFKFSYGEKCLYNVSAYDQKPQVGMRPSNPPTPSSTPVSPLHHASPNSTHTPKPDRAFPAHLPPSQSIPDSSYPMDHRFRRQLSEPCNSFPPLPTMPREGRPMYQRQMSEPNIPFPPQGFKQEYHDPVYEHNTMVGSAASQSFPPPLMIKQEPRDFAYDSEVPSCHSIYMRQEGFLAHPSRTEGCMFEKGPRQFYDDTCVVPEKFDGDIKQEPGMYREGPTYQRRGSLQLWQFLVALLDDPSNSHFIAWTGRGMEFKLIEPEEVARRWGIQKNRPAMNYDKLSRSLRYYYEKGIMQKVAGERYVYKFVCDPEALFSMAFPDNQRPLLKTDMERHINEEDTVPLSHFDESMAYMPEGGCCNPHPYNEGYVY
Protocol: HEK293 cells were transiently transfected with empty vector (for the NT) or ERG-expressing plasmid as well as pRL-TK (internal control) and PUx3-Luc reporter. Cells were then exposed to DMSO vehicle or compounds at designated doses for 48 hours. Experiments were done in triplicate.
Experiments were done as described above in FIG. 1.1a) except that ERG plasmid was replaced by ETV1 plasmid.

[3] = tested on: LNCaP cells; assay: MTT cytotoxicity assay in ETV1-positive LNCaP cells; type: cell-based; conditions: 72 hours
Protocol: FIG. 1.8 Cytotoxicity of compounds 827 and 832 in the ETV1-postive LNCaP cells as evaluated by MTT assay (72 hours).

[4] = biological target: T2, human GATA2 (Homo sapiens, UniProt P23769); assay: GATA2-dependent reporter assay in IHH cells; type: cell-based; conditions: GATA-Luc reporter, 48 h
T2 construct: expressed in transfected cells; host or cells: IHH
T2 sequence (P23769 1-480): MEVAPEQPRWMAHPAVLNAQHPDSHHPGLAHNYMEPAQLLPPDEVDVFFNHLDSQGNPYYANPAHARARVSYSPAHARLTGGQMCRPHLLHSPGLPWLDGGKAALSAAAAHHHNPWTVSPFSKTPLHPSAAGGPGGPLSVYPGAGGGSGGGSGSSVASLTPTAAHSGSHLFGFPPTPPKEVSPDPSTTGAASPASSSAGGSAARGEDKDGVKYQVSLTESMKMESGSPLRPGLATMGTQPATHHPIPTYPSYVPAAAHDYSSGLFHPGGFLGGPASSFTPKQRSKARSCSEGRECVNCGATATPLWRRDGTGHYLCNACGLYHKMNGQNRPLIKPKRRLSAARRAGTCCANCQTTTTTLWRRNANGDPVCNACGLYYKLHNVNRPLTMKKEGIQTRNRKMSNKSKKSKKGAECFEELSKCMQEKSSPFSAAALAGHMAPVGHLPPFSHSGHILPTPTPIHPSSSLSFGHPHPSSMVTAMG
Protocol: K7174 is a known GATA2 inhibitor. The IHH cells were transiently transfected with empty vector (for the NT) or human GATA2-expressing plasmid as well as pRL-TK (internal control) and GATA-Luc reporter plasmids. Cells were exposed to DMSO vehicle or compounds for 48 h. Experiments were in triplicate.

[5] = biological target: T3, human GATA3 (Homo sapiens, UniProt P23771); assay: GATA3-dependent reporter assay in IHH cells; type: cell-based; conditions: 48 hours
T3 construct: expressed in transfected cells; host or cells: IHH
T3 sequence (P23771 whole entry): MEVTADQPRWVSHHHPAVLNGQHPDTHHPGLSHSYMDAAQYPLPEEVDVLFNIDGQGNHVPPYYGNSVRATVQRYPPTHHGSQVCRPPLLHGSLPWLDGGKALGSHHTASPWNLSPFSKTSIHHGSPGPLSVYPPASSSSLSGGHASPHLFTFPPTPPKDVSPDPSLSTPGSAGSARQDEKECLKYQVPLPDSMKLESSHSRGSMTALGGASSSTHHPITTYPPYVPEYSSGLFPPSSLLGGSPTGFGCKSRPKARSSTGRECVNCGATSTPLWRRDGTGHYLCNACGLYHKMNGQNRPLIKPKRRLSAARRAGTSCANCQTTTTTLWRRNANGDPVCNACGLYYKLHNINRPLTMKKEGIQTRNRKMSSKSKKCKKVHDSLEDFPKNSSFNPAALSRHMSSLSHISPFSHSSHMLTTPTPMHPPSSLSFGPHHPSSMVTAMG
Protocol: The IHH cells were transiently transfected with empty vector (for the NT) or human GATA3-expressing plasmid as well as pRL-TK (internal control) and GATA-Luc reporter plasmids. Cells were exposed to DMSO vehicle or compounds for 48 hours. Experiments were done in triplicate.

[6] = biological target: T4, recombinant protein of human GATA2 (Homo sapiens, UniProt P23769); assay: SPR analysis on amine-coupled GATA2; type: binding; conditions: 50 μM each
T4 sequence (P23769 1-480): T2 sequence (P23769 1-480)
Description: In embodiments of the invention, the androgen-bound AR is regressing GATA2 expression and inhibition of AR via castration or use of antiandrogen releases such expression. […] Overexpression of GATA2 confers resistance to antiandrogen bicalutamide (Bic) (FIG. 2.9). Compound 673 is effective against the LNCaP stably transfected with GATA2-expressing plasmid (referred to as LNCaP-GATA2 cells) (FIG. 2.8).

[7] = biological target: T5, human STING (hSTING) (Homo sapiens, UniProt Q86WV6); assay: hSTING ISRE-luc reporter assay in 293T cells; type: cell-based; conditions: 24 hours
T5 construct: expressed in transfected cells; host or cells: 293T
T5 sequence (Q86WV6 whole entry H232R): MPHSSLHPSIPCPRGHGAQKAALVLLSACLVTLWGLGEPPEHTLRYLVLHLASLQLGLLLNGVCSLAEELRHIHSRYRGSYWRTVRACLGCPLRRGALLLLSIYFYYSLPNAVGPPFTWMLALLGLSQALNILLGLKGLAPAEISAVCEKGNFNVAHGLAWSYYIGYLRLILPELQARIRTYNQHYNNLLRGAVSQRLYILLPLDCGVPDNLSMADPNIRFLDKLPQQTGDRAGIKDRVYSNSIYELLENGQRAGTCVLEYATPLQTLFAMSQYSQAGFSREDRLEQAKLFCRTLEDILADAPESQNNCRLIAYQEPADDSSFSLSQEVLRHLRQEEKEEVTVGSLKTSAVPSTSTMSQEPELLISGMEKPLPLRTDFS
Protocol: ISRE-luc (reporter), pRL-TK (internal control) and hSTING-expressing plasmids were transiently transfected into 293T cells. Cells were exposed to DMSO vehicle control or compounds for 24 hours. Experiments were done in triplicate.

[8] = biological target: T6, mouse STING (mSTING) (Mus musculus, UniProt Q3TBT3); assay: mSTING ISRE-luc reporter assay in 293T cells; type: cell-based; conditions: 24 hours
T6 construct: expressed in transfected cells; host or cells: 293T
T6 sequence (Q3TBT3 1-378): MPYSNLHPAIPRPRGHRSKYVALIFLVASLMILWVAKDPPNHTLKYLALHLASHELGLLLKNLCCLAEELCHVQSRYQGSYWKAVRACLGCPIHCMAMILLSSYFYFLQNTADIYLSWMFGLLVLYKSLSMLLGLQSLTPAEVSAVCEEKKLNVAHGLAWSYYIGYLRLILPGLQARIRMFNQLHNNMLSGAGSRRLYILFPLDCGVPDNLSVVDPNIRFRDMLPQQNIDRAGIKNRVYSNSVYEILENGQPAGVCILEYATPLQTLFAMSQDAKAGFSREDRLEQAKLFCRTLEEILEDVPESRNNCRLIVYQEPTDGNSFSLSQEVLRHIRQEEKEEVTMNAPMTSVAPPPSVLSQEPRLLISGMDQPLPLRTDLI
Protocol: ISRE-luc (reporter), pRL-TK (internal control) and mSTING-expressing plasmids were transiently transfected into 293T cells. Cells were exposed to DMSO vehicle control or compounds for 24 hours. Experiments were done in triplicate.

[9] = biological target: human STING (Homo sapiens, UniProt Q86WV6); assay: SPR analysis on amine-coupled human STING; type: binding; conditions: 0-50 μM, 2-fold dilution series
Chain of human STING (Q86WV6 whole entry H232R): as the sequence (Q86WV6 whole entry H232R) above

SMILES: CC(O)(CS(=O)(=O)c1ccc(F)cc1)C(=O)Nc1ccc(C#N)c(C(F)(F)F)c1 (stereo not shown) [bicalutamide, reference compound]
cytotoxicity in LNCaP-GATA2 compared with LNCaP-pcDNA cells (MTT) [1]: less active in LNCaP-GATA2 cells

ETV1 inhibition in ETV1-dependent reporter assay [2]: ETV1 inhibitors
SMILES: c1coc(-c2nc(Cc3c[nH]c4ccccc34)oc2-c2ccco2)c1 [Compound 827]
cytotoxicity in ETV1-positive LNCaP cells (MTT) [3]: cytotoxic

GATA2 inhibition in GATA2-dependent reporter assay [4]: GATA2 inhibitors
activity against GATA3 in GATA3-dependent reporter assay ([5]; 10 μM): inactive against GATA3
activity against GATA3 in GATA3-dependent reporter assay ([5]; compounds at 5 μM): inactive against GATA3
activation of hSTING in ISRE-luc reporter assay [7]: activate hSTING
activation of mSTING in ISRE-luc reporter assay [8]: activate mouse STING (mSTING)
SMILES: c1coc(-c2nc(CCCc3c[nH]c4ccccc34)[nH]c2-c2ccco2)c1 [Compound 817]
binding to amine-coupled GATA2 (SPR) [6]: Direct binding; also recorded: Specific binding
binding to amine-coupled human STING (SPR) [9]: Specific, dose-dependent binding; also recorded: Direct binding
